Results on 21 compounds are retold here after patent publication US12410164B2, “Heterocyclic compounds and medical use thereof” (FONDAZIONE TELETHON, priority 2018, dated 2025).

The target of the experiment is F508del-CFTR (Homo sapiens, UniProt P13569, DEL508-508). The experiment can be described thus: HS-YFP kinetic fluorescence (iodide quenching rate) assay in CFBE41o− cells. It counts as cell-based. On the set-up: expressed in transfected cells; host or cells: CFBE41o- cells with expression of F508del-CFTR and HS-YFP (generated as in Sondo et al. 2011). Conditions: for AI additivity index: Table 1a; for AI additivity index / AI (%) additivity index: compound at 10 μM plus VX-809, (QRTOT − QRVX)/QRVX; for structure-activity comparison of corrector potency/activity: relative to the analogue; for AI (%) additivity index: Table 1, HS-YFP assay. The procedure: CFBE41o- cells, with expression of F508del-CFTR and halogen-sensitive fluorescent protein, were generated as previously described (Sondo E, et al. Am J Physiol. 2011, 301, […]-[…]). For the test, the cells were seeded in 96-well microplates using a culture medium consisting of DMEM and Ham's F12 (1:1) supplemented with 10% foetal bovine serum. After 24 hours from seeding, the cells were treated for another 24 hours with the test compounds dissolved in the culture medium at the desired concentrations. As a negative control, the solvent of the compounds (dimethyl sulfoxide, DMSO) dissolved in the medium with the same dilution ratio (final percentage of DMSO:0.1-0.2%) was used. As a positive control, the corrector VX-809 (Selleck Chemicals, […]) was used at a concentration of 1 μM. After treatment, the medium with the compounds was removed and the cells were stimulated with forskolin (Sigma-Aldrich, F6886) 20 μM plus genistein (Sigma-Aldrich, G6649) 50 μM (in 60 μl of PBS saline) to maximally activate the CFTR channels present in the membrane. In a microplate reader (FLUOstar-Omega, BMG) the fluorescence of the cells in each well was read for 14 seconds, with an injection of 165 μl of a iodide-enriched saline (modified PBS where NaCl, 137 mM, has been replaced with the same concentration of NaI). The iodide transport activity in each well was evaluated by subtraction of the background fluorescence (measured in a well without cells), subsequent normalization with respect to the initial fluorescence and finally by interpolation of the fluorescence quenching phase with an exponential function that allows the derivation of the maximum slope (quenching rate, QR). The activity of the synthesized compounds was initially evaluated on the CFBE41o- cell line with expression of the mutated F508del-CFTR protein described above (Sondo E, et al. Am J Physiol. 2011, 301, […]-[…]). For this purpose, a functional assay based on the fluorescent YFP protein sensitive to halides, HS-YFP, was used (Galietta L J, et al. J Biol Chem. 2001, 276, 19723-19728). The fluorescence of the HS-YFP protein is turned off by iodide. Therefore, if exposed to a solution containing iodide, cells with HS-YFP expression show a quenching speed of the fluorescence which depends on the presence and activity of anionic channels. Under control conditions, the mutated CFTR protein presents a serious defect of stability and maturation, so it remains trapped in the endoplasmic reticulum not reaching the cell surface in enough quantity. In the HS-YFP-based assay, this defect results in a low anion transport capacity and therefore in a low quenching rate (QR). Treatment for a prolonged time (e.g. 24 hours) with a corrector determines an improvement in protein maturation with an increase in the number of CFTR channels present in the membrane and therefore an increase in the flux of iodide and QR. In a first phase, the authors screened about 200 heterocyclic molecules with various nitrogenated tricyclic scaffolds. Conditions previously described have been used for screening (Sondo E, et al. Am J Physiol. 2011, 301, […]-[…]) and reported herein in the Materials and Methods section. A threshold equal to the average value plus three times the standard deviation of the QR of wells without compounds (only DMSO in the culture medium) was used as a criterion for the selection of active compounds.
Chain of F508del-CFTR (P13569 with tags, fused parts or gaps DEL508-508): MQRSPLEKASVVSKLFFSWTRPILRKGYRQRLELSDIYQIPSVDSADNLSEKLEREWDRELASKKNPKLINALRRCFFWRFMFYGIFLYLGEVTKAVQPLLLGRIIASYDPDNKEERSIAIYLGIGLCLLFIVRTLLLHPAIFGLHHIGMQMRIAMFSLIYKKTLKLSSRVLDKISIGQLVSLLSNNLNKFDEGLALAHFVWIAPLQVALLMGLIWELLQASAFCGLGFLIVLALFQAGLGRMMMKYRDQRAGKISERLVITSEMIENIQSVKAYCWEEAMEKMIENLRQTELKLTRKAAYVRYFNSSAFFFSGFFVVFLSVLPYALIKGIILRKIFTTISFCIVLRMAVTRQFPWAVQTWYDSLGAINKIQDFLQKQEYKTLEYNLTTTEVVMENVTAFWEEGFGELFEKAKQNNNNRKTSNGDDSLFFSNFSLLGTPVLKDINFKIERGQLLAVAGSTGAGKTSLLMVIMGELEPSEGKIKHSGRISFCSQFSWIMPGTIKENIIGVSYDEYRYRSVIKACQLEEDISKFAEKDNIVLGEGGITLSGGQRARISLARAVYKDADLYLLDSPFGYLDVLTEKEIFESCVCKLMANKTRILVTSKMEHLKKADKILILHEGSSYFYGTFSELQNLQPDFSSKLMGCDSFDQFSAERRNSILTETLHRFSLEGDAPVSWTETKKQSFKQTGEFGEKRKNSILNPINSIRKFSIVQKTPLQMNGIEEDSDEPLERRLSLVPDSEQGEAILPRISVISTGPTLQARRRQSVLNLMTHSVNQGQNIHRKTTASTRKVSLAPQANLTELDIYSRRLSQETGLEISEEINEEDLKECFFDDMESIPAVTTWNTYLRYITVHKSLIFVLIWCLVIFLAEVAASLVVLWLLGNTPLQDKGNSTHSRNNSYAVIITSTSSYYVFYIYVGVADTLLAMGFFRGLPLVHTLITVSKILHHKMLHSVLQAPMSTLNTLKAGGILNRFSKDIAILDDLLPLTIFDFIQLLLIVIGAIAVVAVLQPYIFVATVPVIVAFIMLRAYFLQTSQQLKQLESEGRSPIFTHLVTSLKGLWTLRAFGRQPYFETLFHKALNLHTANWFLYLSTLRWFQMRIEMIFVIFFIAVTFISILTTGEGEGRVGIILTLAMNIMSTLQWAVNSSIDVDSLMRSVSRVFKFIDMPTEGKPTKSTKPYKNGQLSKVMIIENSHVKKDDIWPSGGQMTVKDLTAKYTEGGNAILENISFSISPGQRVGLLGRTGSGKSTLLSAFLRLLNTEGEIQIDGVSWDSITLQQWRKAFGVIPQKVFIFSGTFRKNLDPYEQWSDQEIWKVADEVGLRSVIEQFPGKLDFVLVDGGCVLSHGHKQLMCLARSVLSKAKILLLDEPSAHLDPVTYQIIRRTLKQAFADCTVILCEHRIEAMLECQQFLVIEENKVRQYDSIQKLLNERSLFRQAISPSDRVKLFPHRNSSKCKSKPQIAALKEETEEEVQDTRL

On to `CCOC(=O)c1c(Br)c2ccc3cc(S(=O)(=O)c4ccccc4)c(=O)[nH]c3c2n1Cc1ccc(C)cc1` [13 (PP057), Ethyl 7-(benzenesulfonyl)-3-bromo-1-[(4-methylphenyl)methyl]-8-oxo-8,9-dihydro-1H-pyrrolo[3,2-h]quinoline-2-carboxylate], for which the AI additivity index turned out to be 272% and the “structure-activity comparison of corrector potency/activity” value is reported as “Increased activity”.
With `CCOC(=O)c1cc2ccc3cc(S(=O)(=O)c4ccccc4)c(=O)[nH]c3c2n1Cc1ccc(C)cc1` [14 (PP058), Ethyl 1-(4-methylbenzyl)-8-oxo-7-(phenylsulfonyl)-8,9-dihydro-1H-pyrrolo[3,2-h]quinoline-2-carboxylate], the AI additivity index turned out to be 177%.
`CCOC(=O)c1cc2c(n1Cc1ccc(C)cc1)-c1[nH]c(=O)c(S(=O)(=O)c3ccccc3)cc1CC2` [PP007]: the “AI (%) additivity index” value was 169%. In addition, the “AI additivity index in the example of FIG. 1” value (10 μM, with VX-809 1 μM, 24 h) turned out to be 74%. In addition, the “F508del-CFTR activity (quenching rate) versus DMSO control” value (compound alone, 24 h treatment) is “significant increase in F508del-CFTR activity”. Moreover, for the setting “compound plus VX-809 1 μM, 24 h”, the “F508del-CFTR activity (quenching rate) of combination with VX-809” value is reported as “greater than the sum of the single effects”. Moreover, the “screening outcome (QR above mean plus three SD of DMSO wells)” value (screen of about 200 heterocyclic molecules) was “active”.
Consider `CCOC(=O)c1cc2c(n1C)-c1[nH]c(=O)c(S(=O)(=O)c3ccccc3)cc1CC2` [PP010], for which the “AI (%) additivity index” value is listed as 95% and the “structure-activity comparison of corrector potency/activity” value is “causes a reduction in activity”.
`CCOC(=O)c1cc2c(n1Cc1ccccc1)-c1[nH]c(=O)c(S(=O)(=O)c3ccccc3)cc1CC2` [PP011]: the “AI (%) additivity index” value is reported as 150% and the “structure-activity comparison of corrector potency/activity” value is listed as “causes a reduction in activity”.
Take `CCOC(=O)c1cc2c(n1Cc1ccccc1C)-c1[nH]c(=O)c(S(=O)(=O)c3ccccc3)cc1CC2` [PP015, Ethyl 1-(2-methylbenzyl)-8-oxo-7-(phenylsulfonyl)-4,5,8,9-tetrahydro-1H-pyrrolo[3,2-h]quinoline-2-carboxylate]: the “AI (%) additivity index” value amounted to 124%.
On the same count and under the same terms, for `CCOC(=O)c1cc2c(n1Cc1cccc(C)c1)-c1[nH]c(=O)c(S(=O)(=O)c3ccccc3)cc1CC2` [PP016, Ethyl 1-(3-methylbenzyl)-8-oxo-7-(phenylsulfonyl)-4,5,8,9-tetrahydro-1H-pyrrolo[3,2-h]quinoline-2-carboxylate] the value was 42%; for `CCOC(=O)c1cc2c(n1Cc1ccc(Cl)cc1)-c1[nH]c(=O)c(S(=O)(=O)c3ccccc3)cc1CC2` [PP017, Ethyl 1-(4-chlorobenzyl)-8-oxo-7-(phenylsulfonyl)-4,5,8,9-tetrahydro-1H-pyrrolo[3,2-h]quinoline-2-carboxylate], 203%; for `COC(=O)c1cc2c(n1Cc1ccc(C)cc1)-c1[nH]c(=O)c(S(=O)(=O)c3ccccc3)cc1CC2` [PP019, Methyl 1-(4-methylbenzyl)-8-oxo-7-(phenylsulfonyl)-4,5,8,9-tetrahydro-1H-pyrrolo[3,2-h]quinoline-2-carboxylate], 29%.
In the case of `COC(=O)c1cc2c(n1Cc1ccccc1C)-c1[nH]c(=O)c(S(=O)(=O)c3ccccc3)cc1CC2` [PP020, Methyl 1-(2-methylbenzyl)-8-oxo-7-(phenylsulfonyl)-4,5,8,9-tetrahydro-1H-pyrrolo[3,2-h]quinoline-2-carboxylate], the “AI (%) additivity index” value is reported as 33%.
Still for that read-out and setting: to `CCOC(=O)c1cc2c(n1Cc1ccc(C)cc1C)-c1[nH]c(=O)c(S(=O)(=O)c3ccccc3)cc1CC2` [PP021, Ethyl 7-(benzenesulfonyl)-1-[(2,4-dimethylphenyl)methyl]-8-oxo-4,5,8,9-tetrahydro-1H-pyrrolo[3,2-h]quinoline-2-carboxylate] belongs 40%; to `Cc1ccc(Cn2c(C(=O)OC(C)C)cc3c2-c2[nH]c(=O)c(S(=O)(=O)c4ccccc4)cc2CC3)cc1` [PP022, Propan-2-yl 7-(benzenesulfonyl)-1-[(4-methylphenyl)methyl]-8-oxo-4,5,8,9-tetrahydro-1H-pyrrolo[3,2-h]quinoline-2-carboxylate], 279%; to `CCOC(=O)c1cc2c(n1Cc1ccc(C)cc1)-c1[nH]c(=O)c(S(=O)(=O)c3ccc(C)cc3)cc1CC2` [PP023, Ethyl 7-(4-methylbenzene-1-sulfonyl)-1-[(4-methylphenyl)methyl]-8-oxo-4,5,8,9-tetrahydro-1H-pyrrolo[3,2-h]quinoline-2-carboxylate], 89%.
In the case of `CCOC(=O)c1cc2c(n1Cc1ccc(C)cc1)-c1[nH]c(=O)c(S(C)(=O)=O)cc1CC2` [PP024, Ethyl 7-(metansulfonyl)-1-[(4-methylphenyl)methyl]-8-oxo-4,5,8,9-tetrahydro-1H-pyrrolo[3,2-h]quinoline-2-carboxylate], the “AI (%) additivity index” value stood at 11%.
Still for that read-out and setting: for `CCOC(=O)c1cc2c(n1Cc1ccc(C)c(C)c1)-c1[nH]c(=O)c(S(=O)(=O)c3ccccc3)cc1CC2` [PP025, Ethyl 7-(benzenesulfonyl)-1-[(3,4-dimethylphenyl)methyl]-8-oxo-4,5,8,9-tetrahydro-1H-pyrrolo[3,2-h]quinoline-2-carboxylate] the value was 178%.
`CCOC(=O)c1c(Br)c2c(n1Cc1ccccc1C)-c1[nH]c(=O)c(S(=O)(=O)c3ccccc3)cc1CC2` [PP027, Ethyl 3-bromo 1-(2-methylbenzyl)-8-oxo-7-(phenylsulfonyl)-4,5,8,9-tetrahydro-1H-pyrrolo[3,2-h]quinoline-2-carboxylate]: the “AI (%) additivity index” value is listed as 185% and the “structure-activity comparison of corrector potency/activity” value is “potency comparable to that of PP008”.
For `CCOC(=O)c1c(Br)c2c(n1Cc1ccc(Cl)cc1)-c1[nH]c(=O)c(S(=O)(=O)c3ccccc3)cc1CC2` [PP029, Ethyl 3-bromo 1-(4-chlorobenzyl)-8-oxo-7-(phenylsulfonyl)-4,5,8,9-tetrahydro-1H-pyrrolo[3,2-h]quinoline-2-carboxylate], the “AI (%) additivity index” value is listed as 46%.
Take `CCOC(=O)c1c(Br)c2c(n1Cc1cccc(C)c1)-c1[nH]c(=O)c(S(=O)(=O)c3ccc(Cl)cc3)cc1CC2` [PP030, Ethyl 3-bromo-7-[(4-chlorophenyl)sulfonyl]-1-(3-methylbenzyl)-8-oxo-4,5,8,9-tetrahydro-1H-pyrrolo[3,2-h]quinoline-2-carboxylate]: the “AI (%) additivity index” value turned out to be 96%.
Turning to `COC(=O)c1c(Br)c2c(n1Cc1ccc(C)cc1)-c1[nH]c(=O)c(S(=O)(=O)c3ccccc3)cc1CC2` [PP031, Methyl 3-bromo-1-(4-methylbenzyl)-8-oxo-7-(phenylsulfonyl)-4,5,8,9-tetrahydro-1H-pyrrolo[3,2-h]quinoline-2-carboxylate], the “AI (%) additivity index” value is listed as 39%.
On the same count and under the same terms, to `COC(=O)c1c(Br)c2c(n1Cc1ccccc1C)-c1[nH]c(=O)c(S(=O)(=O)c3ccccc3)cc1CC2` [PP032, Methyl 3-bromo-1-(2-methylbenzyl)-8-oxo-7-(phenylsulfonyl)-4,5,8,9-tetrahydro-1H-pyrrolo[3,2-h]quinoline-2-carboxylate] belongs 133%.
In the case of `CCOC(=O)c1c(Br)c2c(n1Cc1ccc(C)cc1C)-c1[nH]c(=O)c(S(=O)(=O)c3ccccc3)cc1CC2` [PP033, Ethyl 7-(benzenesulfonyl)-3-bromo-1-[(2,4-dimethylphenyl)methyl]-8-oxo-4,5,8,9-tetrahydro-1H-pyrrolo[3,2-h]quinoline-2-carboxylate], the “AI (%) additivity index” value was found to be 114% and the “structure-activity comparison of corrector potency/activity” value is “reduction in activity compared to PP008”.
